Where two headings read alike, the source gives them in different places.
Key:
solubility in water = type: physicochemical; settings: product of example 1
Description: As the water-solubility of Erianin is low, the solubility in water being just <1 mg/ml, its preparation performance and clinical application are limited, so it is necessary to study the salts that can improve its water-solubility. At present, there is not any literature on the salts of Erianin and it's preparing process.
Cooling the crude acyl chloride in ice bath, adding sodium hydroxide solution (2 mol/L) while stirring till the PH value of the mixture is between 8˜10, stirring for 8 hours at 50° C.˜80° C., filtering to remove the insoluble substance, decompressing to evaporate most of the solvent, cooling for the white solid to be separated, which is the crude disodium phosphate of Erianin; Dissolving the crude product with ethanol while heated, filtering to remove the insoluble solid while hot, and cooling the filtrate for separated crystal as pure disodium phosphate of Erianin (6.0 g), a white crystal product with a yield of 86% m.p. 266-269° C., (splitting), dissolubility in water: 200 mg/ml.

Kunming mice = experiment: LD50 determination of disodium phosphate of Erianin; type: in vivo; settings: for deaths, death rate in total: 10 mice
Description: Experimental animal: Kunming mice, provided by Shanghai Slac Laboratory Animal Co., Ltd., weight being between 18˜22 g, half and half of female and male.
Reagent: 0.9% NaCl, disodium phosphate of Erianin (AP), provided by Zhejiang Cell Biomedical Research Co., Ltd., which is prepared by the process above, bitter acid.
(1) Experimental animal: Kunming mice, set up in 7 groups, 10 mice every group and half and half of female and male. Marked by bitter acid.
(2) In every group, administering by vena caudalis injection according to body weight of 1300 mg/kg, 1250 mg/kg, 1200 mg/kg, 1150 mg/kg, 1100 mg/kg, 1050 mg/kg, 1000 mg/kg.
(3) Observing at 0.25 h, 0.5 h, 1 h, 2 h, 4 h, 24 h respectively after administration and recording the death rate; then observing once every day and recording the death rate (table 1) for 14 days; putting the mice still alive to death on the 15th day and giving pathological anatomy.

S180 tumor = settings: for Weight 10 d: body weight day 10; for Tumor weight / rate of tumor inhibition: day 10; for Weight 0 d: body weight day 0
Source text: Samples: disodium phosphate of Erianin (AP, prepared by the process of example 1) prepared the concentration needed with physiologic saline.
Control medicine: cyclophosphamide for injection (CTX), Shanghai Hualian Pharmaceutical Co., Ltd, batch number: 020806. dissolved with physiologic saline for use.
Fifty Kunming mice, female, weight: […], provided by the animal house in Shanghai Institute of Pharmaceutical Industry.
Two S180 ascites tumor mice, provided by the animal house in Shanghai Institute of Pharmaceutical Industry.
Drawing ascites under aseptic condition from S180 ascites tumor mice, counting the cells, diluting to 1-2×10^7/ml with physiologic saline, giving subcutaneous inoculation in the armpit of the mice with 0.2 ml each, randomly dividing the mice equally into five groups the next day, ten in each group.
Dosage for administration (mg/kg./d): AP 25 mg/kg, 75 mg/kg, 225 mg/kg
Means of administration: intravenous injection
The control medicine, cyclophosphamide, administered by intravenous injection, the dosage being 30 mg/kg×9d.
And setting up blank control group.
Administering medicine to the mice by weight the next day of inoculation, […] 0.5 ml/20 g for 9 days, by weight, and putting them to death on the tenth day after inoculation, weighing the tumor and calculating the rate of tumor inhibition.
Assessing the result according to the following formula: […]

[1] = background statement; cited from earlier work
liver cancer of mouse = settings: cited from earlier work
[2] = tested on: human leukemia HL-60 cells; settings: cited from earlier work
tumor cell strain K256 = settings: among dihydrobibenzyls and phenanthrenes in Dendrobium chrysotoxum; cited from earlier work

Compound: 3,4,5,4′-tetramethoxyl diphenylethane-3′-O-disodic phosphate [AP]
- dissolubility in water (solubility in water): 200 mg/mL
- deaths, death rate in total (Kunming mice; 1000 mg/kg i.v.): 0
- deaths, death rate in total (Kunming mice; 1050 mg/kg i.v.): 1
- deaths (Kunming mice; 1050 mg/kg i.v., day 1): 1
- deaths, death rate in total (Kunming mice; 1100 mg/kg i.v.): 3
- deaths (Kunming mice; 1100 mg/kg i.v., day 1): 3
- deaths, death rate in total (Kunming mice; 1150 mg/kg i.v.): 1
- deaths (Kunming mice; 1150 mg/kg i.v., day 1): 1
- deaths, death rate in total (Kunming mice; 1200 mg/kg i.v.): 3
- deaths (Kunming mice; 1200 mg/kg i.v., day 5): 1
- deaths (Kunming mice; 1200 mg/kg i.v., day 6): 1
- deaths (Kunming mice; 1200 mg/kg i.v., hours 0-4): 1
- deaths, death rate in total (Kunming mice; 1250 mg/kg i.v.): 6
- deaths (Kunming mice; 1250 mg/kg i.v., day 1): 3
- deaths (Kunming mice; 1250 mg/kg i.v., day 2): 2
- deaths (Kunming mice; 1250 mg/kg i.v., hours 0-4): 1
- deaths, death rate in total (Kunming mice; 1300 mg/kg i.v.): 7
- deaths (Kunming mice; 1300 mg/kg i.v., day 1): 6
- deaths (Kunming mice; 1300 mg/kg i.v., day 3): 1
- LD50 (Kunming mice; Kunming mice, vena caudalis injection, 14 days observation): 1243.0377 mg/kg
- pathological anatomy (Kunming mice; mice died during the experiment and mice executed after 14 days): no obvious pathological change
- Weight 10 d (S180 tumor; 25 mg/kg i.v. for 9 days): 22.93 ± 1.28 g
- Tumor weight (S180 tumor; 25 mg/kg i.v. for 9 days): 1.42 ± 0.26
- rate of tumor inhibition (S180 tumor; 25 mg/kg i.v. for 9 days): 42%
- Weight 0 d (S180 tumor; 25 mg/kg i.v.): 18.37 ± 1.58 g
- Weight 10 d (S180 tumor; 75 mg/kg i.v. for 9 days): 22.75 ± 2.25 g
- Tumor weight (S180 tumor; 75 mg/kg i.v. for 9 days): 0.82 ± 0.20
- rate of tumor inhibition (S180 tumor; 75 mg/kg i.v. for 9 days): 67%
- Weight 0 d (S180 tumor; 75 mg/kg i.v.): 18.41 ± 1.74 g
- Weight 10 d (S180 tumor; 225 mg/kg i.v. for 9 days): 22.01 ± 3.46 g
- Tumor weight (S180 tumor; 225 mg/kg i.v. for 9 days): 0.69 ± 0.08
- rate of tumor inhibition (S180 tumor; 225 mg/kg i.v. for 9 days): 72%
- Weight 0 d (S180 tumor; 225 mg/kg i.v.): 19.65 ± 1.26 g

Compound: O=P1(N(CCCl)CCCl)NCCCO1 (centres unmarked) [CTX, cyclophosphamide, reference compound]
- Weight 0 d (S180 tumor; 30 mg/kg i.v.): 19.78 ± 1.20 g
- Weight 10 d (S180 tumor; 30 mg/kg×9d i.v.): 19.58 ± 2.54 g
- Tumor weight (S180 tumor; 30 mg/kg×9d i.v.): 0.41 ± 0.17
- rate of tumor inhibition (S180 tumor; 30 mg/kg×9d i.v.): 83%

Compound: COc1ccc(CCc2cc(OC)c(OC)c(OC)c2)cc1O [Erianin]
- solubility in water [1]: < 1 mg/mL
- tumor inhibitory rate (liver cancer of mouse): 50.82%
- growth of human leukemia HL-60 cells [2]: significantly inhibited
- inhibitory effect on the growth of tumor cell strain K256 (tumor cell strain K256): the most active

Reference: patent US20080306028A1, “Erianin Salts, Their Preparation Methods and Pharmaceutical Compositions Containing the Same” (priority 2005, published 2008)
